According to patent US8735611B2, “Crystalline forms of cabazitaxel” (ScinoPharm Taiwan, Ltd., priority 2011, dated 2014):

Test: Dynamic vapor sorption (DVS) analysis
Format: physicochemical
Conditions: over 2 cycles tested; consistent with loss of AcOH upon dehumidification, confirmed by 1H NMR after DVS
Description: XRPD analysis confirmed that Form C9 is crystalline. […] (FIG. 10c). Decomposition occurs at about 220° C., as indicated by the large weight loss observed by TGA around this temperature. […] This was confirmed by ^1H NMR spectroscopy after DVS analysis. KF titration of Form C9 indicated the presence of about 2.3% water.
A hot solution of cabazitaxel (0.1 g) in 1 mL of AcOH and 0.5 mL of H2O was slowly cooled to room temperature. The mixture was filtered and the resulting solids were dried in a vacuum oven to give cabazitaxel Form C9 as a white solid (melting point: 152.5-159.3° C.). […] This was consistent with a loss of AcOH upon dehumification, which was confirmed by ^1H NMR spectroscopic analysis after the DVS test.

CO[C@H]1C(=O)[C@]2(C)[C@@H](OC)C[C@H]3OC[C@@]3(OC(C)=O)[C@H]2[C@H](OC(=O)c2ccccc2)[C@]2(O)C[C@H](OC(=O)[C@H](O)[C@@H](NC(=O)OC(C)(C)C)c3ccccc3)C(C)=C1C2(C)C [Form C9, cabazitaxel]
weight loss and gain upon changing humidity (DVS): non-perfectly reversible weight loss and gain upon changing humidity
